Data as given in US7384927B2, “Alkylated porphyrins as pesticides acting both in the presence and absence of light” (priority 2003, dated 2008).

Test system: Ceratitis capitata flies
Experiment: Insecticidal action in the dark: fly survival after porphyrin bait
Type: in vivo
Details: dark, fed 24 h, survival 12 h after change to porphyrin-free bait
Description: For comparison, data obtained with two conventional porphyrins (as those described in WO 97/29637) offered to the insects for 24 h at a 3.0 and 8.1 μmolar concentration in the same bait are also shown. In all cases, the survival was determined 12 hours after changing food supply from a porphyrin-containing to a porphyrin-free bait. […] These flies were then used in the various experimental sessions. […] The number of survivors was evaluated 12 h after switching from administration of a porphyrin-containing bait to a porphyrin-free bait. In none of the experiments was mortality or any apparent toxic effect observed in control flies (flies not fed with porphyrin, see survival at 0 μM porphyrin concentration).

SMILES | Survival (% of control untreated flies) (0.75 μM in bait) | Survival (% of control untreated flies) (1.25 μM in bait) | Survival (% of control untreated flies) (2.10 μM in bait) | Survival (% of control untreated flies) (3.00 μM in bait) | Survival (% of control untreated flies) (5.00 μM in bait) | Survival (% of control untreated flies) (8.10 μM in bait)
CCCCCCCCCCCCCCCCCC[n+]1ccc(-c2c3nc(c(-c4cc[n+](C)cc4)c4ccc([nH]4)c(-c4cc[n+](C)cc4)c4nc(c(-c5cc[n+](C)cc5)c5ccc2[nH]5)C=C4)C=C3)cc1 [C18, meso[tri(N-methyl-pyridyl), mono(N-octadecyl-pyridyl)]porphine] | 100 % of control untreated flies | 42 % of control untreated flies | 29 % of control untreated flies | 12 % of control untreated flies | 2 % of control untreated flies | 0 % of control untreated flies
CCCCCCCCCCCCCC[n+]1ccc(-c2c3nc(c(-c4cc[n+](C)cc4)c4ccc([nH]4)c(-c4cc[n+](C)cc4)c4nc(c(-c5cc[n+](C)cc5)c5ccc2[nH]5)C=C4)C=C3)cc1 [C14, meso[tri(N-methyl-pyridyl), mono(N-tetradecyl-pyridyl)]porphine] | 100 % of control untreated flies | 51 % of control untreated flies | 38 % of control untreated flies | 21 % of control untreated flies | 14 % of control untreated flies | 9 % of control untreated flies
CCCCCCCCCCCC[n+]1ccc(-c2c3nc(c(-c4cc[n+](C)cc4)c4ccc([nH]4)c(-c4cc[n+](C)cc4)c4nc(c(-c5cc[n+](C)cc5)c5ccc2[nH]5)C=C4)C=C3)cc1 [C12, meso[tri(N-methyl-pyridyl), mono(N-dodecyl-pyridyl)]porphine] | 100 % of control untreated flies | 73 % of control untreated flies | 58 % of control untreated flies | 42 % of control untreated flies | 38 % of control untreated flies | 35 % of control untreated flies
